# Data as given in patent US11701360B2, “Composition for inducing differentiation and protection of neural stem cells and method for inducing neuro-regeneration using the same composition” (GENUV Inc., priority 2017, dated 2023).
# Entries after “also recorded” stand apart in the source; their conditions may differ. Where two headings read alike, the source gives them in different places.
# Key:
# [1] = tested on: mouse adult neural stem cells; conditions: for cell protection and differentiation of NSC under amyloid-beta cytotoxicity: 10 μM amyloid-beta, second day of culture; for concentration at which differentiation-inducing effect starts: no amyloid-beta, day 2 of culture
# Experimental: NSC were isolated from the subventricular zone of week 8 mouse brain, treated with 20 ng/ml human basic fibroblast growth factor (bFGF) and 20 ng/ml human epidermal growth factor (EGF) in an IPM medium, and cultured as a suspension in 24-well plates for 7 days.
# Two days before the isolation of single cells, 6-well plates were prepared by treating the wells with 10 μg/ml poly-L-ornithine solution and incubating overnight at room temperature for coating. The next day, poly-L-ornithine solution was removed and the plates were washed 3 times with sterilized triple distilled water. […] The culture solution used is N2 culture medium (supplemented with 20 ng/ml bFGF and 20 ng/ml EGF). Right before seeding, the coating solution was suctioned out, and the single cells were uniformly seeded into the culture plate before the plate dried up. Cells were allowed to attach to the plates for about one minute, and after checking that cells were sufficiently attached, an additional 1.5 ml of culture medium (N2 culture medium with 20 ng/ml bFGF and 20 ng/ml EGF) was added to the cells and cultured in a 37° C. incubator for 24 hours.
# Wells not treated with amyloid-beta were left to use as negative controls.
# Gibco's (Waltham, Mass.) human Aβ (1-42) was purchased to use for the amyloid-beta (Aβ), and the following process was followed to create oligomers. […] Then, it was dried for 10 minutes in a speed Vac, after which DMSO (Sigma, cat #.D2650) was added to bring the concentration to 5 mM and then lightly vortexed at room temperature for 10 minutes. […] The solution was incubated at 4° C. for 24 hours and then added into the cultured cells.
# The NCSs were cultured with the daily addition of EGF, bFGF, amyloid-beta, and test materials for 4 days.
# [2] = tested on: mouse embryonic neural stem cells; experiment: Morphology analysis (phase-contrast) of NSC differentiation in mouse embryonic neural stem cells; assay type: cell-based; conditions: 1.0 μM and 10 μM; day 2 of culture
# Experimental: Neural stem cells were isolated from the brain of a day 14.5 mouse embryo, treated with 10 ng/ml human basic fibroblast growth factor (bFGF) (Peprotech, Princeton, NG, cat #0.100-18B) and 20 ng/ml human epidermal growth factor (EGF) (Peprotech, cat #. AF-100-15) in a N2 culture medium, and cultured in suspension in a 25 cm2 flask (Nunc, Pittsburgh, Pa.) for 4 days. Formation of neurospheres was observed after 2 days.
# In order to isolate single cells, 6-well plates were prepared the day before by treating the wells with 15 μg/ml poly-L-ornithine (Sigma, St. Louis, Mo., cat #.P2533) solution and incubating overnight at 37° C. for coating. The day of the single cell isolation, poly-L-ornithine solution was removed, the plates were washed with PBS three times, and 10 μg/ml fibronectin (Gibco, Waltham, Mass., cat #. 33016015) solution was added and incubated at 37° C. for 2 hours for coating.
# Various concentrations of the compound of [Formula 1]
# FIG. 10b is the analysis of Tuj1 mRNA expression in the cells of each group.
# [3] = target: MEK1 (Homo sapiens (Human), UniProt Q02750); conditions: cited from earlier work
# [4] = tested on: mouse embryonic neural stem cells; experiment: Immunocytochemistry analysis (Tuj1/DAPI staining); assay type: cell-based; conditions: 4 days
# Experimental: Tuj1 (Neuron specific class III beta-tubulin) is a neuron specific marker protein, which was conjugated to rhodamine to show fluorescent red, while DAPI binds to the cell DNA and stains the cell nuclei fluorescent blue. […] The medium was removed and the cells were washed with PBS. After fixing with 10% formaldehyde (Sigma cat #. HT501128) at room temperature for 10 minutes, they were washed again with PBS. They were permeabilized with 0.2% Triton X-100 (Sigma, cat #. 93443) at room temperature for 15 minutes, washed with PBS, and incubated with 10% BSA (Sigma, cat #. A2153)+1% normal goat serum (Vector lab, Burlingame, Calif., cat #. S1000) at room temperature for 1 hour. […] The solution was removed, washed with PBS, and incubated at room temperature for 1 hour with the secondary antibody (rhodamine-conjugated antibody) diluted in 1% BSA+1% normal goat serum at a ratio of 1:200. Then, the cells were washed with PBS, incubated with 5 μg/ml DAPI (Sigma, cat #. D9542) for 5 minutes, washed with PBS again, and mounted on a slide glass for analysis with a fluorescent microscope.
# [5] = cited from earlier work
# MEK1, sequence (Q02750 whole entry, species assumed): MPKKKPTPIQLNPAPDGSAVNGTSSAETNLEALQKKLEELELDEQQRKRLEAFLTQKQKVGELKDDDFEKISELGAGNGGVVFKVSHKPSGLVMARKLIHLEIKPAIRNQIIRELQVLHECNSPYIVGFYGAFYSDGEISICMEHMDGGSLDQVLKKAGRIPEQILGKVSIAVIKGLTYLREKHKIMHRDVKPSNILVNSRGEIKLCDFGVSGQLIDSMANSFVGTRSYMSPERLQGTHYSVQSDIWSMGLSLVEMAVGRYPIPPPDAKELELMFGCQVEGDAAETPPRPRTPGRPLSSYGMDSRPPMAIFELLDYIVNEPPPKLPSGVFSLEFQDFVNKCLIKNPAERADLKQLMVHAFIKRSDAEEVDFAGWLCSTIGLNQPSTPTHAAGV
compound,measurement,setting,value
O=C(NOCC(O)CO)c1cc(Br)c(F)c(F)c1Nc1ccc(I)cc1F (stereo not drawn) [PD318088],cell protection and differentiation of NSC under amyloid-beta cytotoxicity,[1]; compound 1 μM,provided cell protection and induced the differentiation of NSC
BI847325,cell proliferation,"[1]; 1.0 nM and 10 nM, day 2",somewhat inhibited
same,differentiation-inducing effect (morphology),"[1]; 1.0 nM and 10 nM, day 2",not observed
same,differentiation-inducing effect (morphology),"[1]; 0.1 μM, day 2",only a weak differentiation-inducing effect
COc1cc(F)c(F)c(Nc2ccc(I)cc2F)c1NS(=O)(=O)C1(C[C@H](O)CO)CC1 [refametinib],cell protection and differentiation of NSC under amyloid-beta cytotoxicity,[1]; compound 1 μM,provided cell protection and induced the differentiation of NSC
CNS(=O)(=O)Nc1nccc(Cc2c(C)c3ccc(Oc4ncccn4)cc3oc2=O)c1F [RO5126766],concentration at which differentiation-inducing effect starts,[1],1.0 µM
O=C(NOC[C@H](O)CO)c1ccc(F)c(F)c1Nc1ccc(I)cc1F [PD0325901],differentiation-inducing effect (morphology),"[1]; 0.1 μM to 10 μM, day 2",excellent inducing effect
same,concentration at which differentiation-inducing effect starts,[1],0.1 µM
Cc1cc(C(=O)NOCCO)c(Nc2ccc(I)cc2F)n(C)c1=O [AZD8330],cell protection and differentiation of NSC under amyloid-beta cytotoxicity,[1]; compound 1 μM,provided cell protection and induced the differentiation of NSC
CC12CC3CC(C)(C1)CC(N)(C3)C2 [memantine],cell death of neural stem cells,"[1]; 5 μM and 10 μM, 4 days",death of neural stem cells
same,differentiation of NSC into neurons (morphology),"[1]; 5 μM and 10 μM, 4 days",not observed
N#CC(=C(/N)Sc1ccccc1N)/C(C#N)=C(\N)Sc1ccccc1N [U0126],cell proliferation,"[1]; 0.1 μM and 1.0 μM, day 2",inhibition of cell proliferation
same,differentiation-inducing effect (morphology),"[1]; 2.5 μM, day 2",did not show any clear differentiation-inducing effect
same,cell cytotoxicity,"[1]; 10 μM, day 2",cell cytotoxicity
same,NSC differentiation-inducing effect (morphology),"[1]; all concentrations tested, day 2",failed to show any NSC differentiation-inducing effect
O=C(NOCC1CC1)c1ccc(F)c(F)c1Nc1ccc(I)cc1Cl [PD184352],cell death,[2],all the cells died
O=C(c1ccc(F)c(F)c1Nc1ccc(I)cc1F)N1CC(O)([C@@H]2CCCCN2)C1 [cobimetinib],differentiation of adult NSC (morphology),"[1]; 10 μM, regardless of whether amyloid-beta was added, second day",did not induce the differentiation of adult NSC; also recorded: does not induce the differentiation of mouse adult neural stem cells
same,selectivity toward MEK1 compared with MEK2,[3],≥ 100 ×
"O=C(NC[C@H](O)CO)c1ccncc1Nc1ccc(I)cc1F [AS703026, pimasertib]",cell protection and differentiation of NSC under amyloid-beta cytotoxicity,[1]; compound 10 μM,provided cell protection and induced the differentiation of NSC
same,cell toxicity,"[1]; trametinib 10 nM and 100 nM, AS703026 10 μM, 4 days",did not elicit cell toxicity
same,neuron differentiation (Tuj1 staining),[4]; 0.1 μM,no differentiation was observed
same,neuron differentiation (Tuj1 staining),[4]; 1.0 μM,"neuron differentiation occurs at this concentration, albeit only to a marginal extent"
same,expression of phosphorylated ERK in the mouse brain,[5],decrease the expression of phosphorylated ERK
same,crossing of the blood brain barrier,[5]; mouse,effectively cross the BBB
